In ChEMBL document CHEMBL5113459 (Bioorg Med Chem Lett, 2022) one finds IC50 data, which are given here for eight molecules.

What all share (format): functional, cell-based
The subject of one experiment is LNCaP. Briefly: Antiproliferative activity against human AR-positive LNCaP cells assessed as cell growth inhibition incubated for 3 days by WST-1 assay. The conditions noted are these: 72 h. In general terms: Tetrazolium dyes change colour on reduction, which living cells bring about.
The test system of a further experiment is DU-145. Briefly: Antiproliferative activity against human AR-negative DU-145 cells assessed as cell growth inhibition incubated for 3 days by WST-1 assay. The conditions noted are these: DU-145, 72 h.
The subject of another experiment is CWR22R. Briefly: Antiproliferative activity against human AR-positive 22Rv1 cells assessed as cell growth inhibition incubated for 3 days by WST-1 assay. Particulars: 22Rv1, 72 h.
Another experiment concerns PC-3. In words: Antiproliferative activity against human AR-negative PC-3 cells assessed as cell growth inhibition incubated for 3 days by WST-1 assay. Particulars: PC-3, 72 h.

Consider `Cc1ncsc1-c1ccc(CNC(=O)[C@@H]2C[C@@H](O)CN2C(=O)[C@@H](NC(=O)COCCOCCOc2ccc(Cl)cc2C(=O)Nc2ccc([N+](=O)[O-])cc2Cl)C(C)(C)C)cc1`, for which the IC50 – broadly, the midpoint of a concentration-inhibition curve – is 2.37 µM in the experiment on LNCaP, more than 10 µM with DU-145, 4.94 µM in the experiment on CWR22R and 2.34 µM in the experiment with PC-3.

For `C#CCCOc1ccc(Cl)cc1C(=O)Nc1ccc([N+](=O)[O-])cc1Cl`, the IC50 in the experiment with LNCaP, in the experiment on DU-145, in the experiment with CWR22R and in the experiment on PC-3 was more than 10 µM in each case.

On to `O=C(O)COCCOCCOc1ccc(Cl)cc1C(=O)Nc1ccc([N+](=O)[O-])cc1Cl`, for which the IC50 in the experiment with LNCaP, in the experiment on DU-145, in the experiment on CWR22R and in the experiment on PC-3 was more than 10 µM throughout.

Take `CC(C)(C)OC(=O)COCCOCCN=[N+]=[N-]`: the IC50 in the experiment on LNCaP, with DU-145, in the experiment with CWR22R and in the experiment with PC-3 was more than 10 µM throughout.

Consider `CC(C)(C)OC(=O)COCCOCCn1cc(CCOc2ccc(Cl)cc2C(=O)Nc2ccc([N+](=O)[O-])cc2Cl)nn1`, for which the IC50 with LNCaP is 3.08 µM; in the experiment with DU-145, more than 10 µM; in the experiment on CWR22R, more than 10 µM; in the experiment on PC-3, more than 10 µM.

On to `Cc1ncsc1-c1ccc(CNC(=O)[C@@H]2C[C@@H](O)CN2C(=O)[C@@H](NC(=O)COCCOCCn2cc(CCOc3ccc(Cl)cc3C(=O)Nc3ccc([N+](=O)[O-])cc3Cl)nn2)C(C)(C)C)cc1`, for which the IC50 was 1.04 µM in the experiment with LNCaP, more than 10 µM with DU-145, 6.88 µM in the experiment on CWR22R and 2.79 µM in the experiment on PC-3.

For `O=C(O)COCCOCCn1cc(CCOc2ccc(Cl)cc2C(=O)Nc2ccc([N+](=O)[O-])cc2Cl)nn1`, the IC50 in the experiment on LNCaP, with DU-145, with CWR22R and in the experiment on PC-3 was more than 10 µM each time.

For `O=C(Nc1ccc([N+](=O)[O-])cc1Cl)c1cc(Cl)ccc1O` [NICLOSAMIDE], the IC50 in the experiment with LNCaP came to 0.8 µM; with DU-145 it was 3.65 µM; in the experiment with CWR22R, 1.61 µM; in the experiment with PC-3 it was 1.92 µM.
